This is an account of results in US9802895B2, “Indole and benzimidazolecarboxamides as insecticides and acaricides” (BAYER CROPSCIENCE AKTIENGESELLSCHAFT, priority 2014, dated 2017).

The subject of series [1] is engorged adult female cattle ticks (Boophilus microplus). The series is described as follows: Boophilus microplus injection test (BOOPMI inj). Type of series: in vivo. Conditions: assessed after 7 days. In short, it runs like this: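 1 μl of compound in DMSO is injected into the abdomen of 5 engorged females per group, which are then held in a climate-controlled room. After 7 days, egg-laying and egg fertility are scored, with unclear eggs kept about 42 days until hatch; 100% means no fertile eggs laid.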

The subject of series [2] is adult cat fleas (Ctenocephalides felis). In words: Ctenocephalides felis oral test (CTECFE). Format: in vivo. Conditions: 100 ppm, oral in cattle blood, after 2 days. In short, it runs like this: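 About 20 unfed adult fleas fed through a parafilm membrane on citrated cattle blood containing compound, added from a DMSO stock and diluted to test concentration. Kill % was scored after 2 days, where 100% means all fleas dead and 0% means none.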

Series [3] relates to L1 larvae of the Australian sheep blowfly (Lucilia cuprina). In words: Lucilia cuprina test (LUCICU). Format: in vivo. Conditions: 100 ppm, after 2 days. In short, it runs like this: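 About 20 L1 larvae placed in vessels with minced horsemeat containing compound (DMSO formulation diluted with water to test concentration). Kill in % scored after 2 days.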
Series [4] deals with adult houseflies (Musca domestica). In words: Musca domestica test (MUSCDO). Format: in vivo. Conditions: 100 ppm, after 2 days. In short, it runs like this:
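Ten adult houseflies housed with a sponge carrying sugar solution plus compound, formulated in DMSO and diluted with water to test concentration. Mortality (%) scored after 2 days; 100% = all flies dead.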

The subject of series [5] is southern root-knot nematode (Meloidogyne incognita). In words: Meloidogyne incognita test. Format: in vivo. Conditions: 20 ppm, after 14 days. On the procedure: Meloidogyne incognita Test Solvent: 125.0 parts by weight of acetone To produce a suitable active compound formulation, 1 part by weight of active compound is mixed with the stated amount of solvent and the concentrate is diluted with water to the desired concentration. Vessels are filled with sand, active compound solution, an egg/larvae suspension of the southern root-knot nematode (Meloidogyne incognita) and lettuce seeds. The lettuce seeds germinate and the plants develop. The galls develop on the roots. After 14 days, the nematicidal efficacy in % is determined by the formation of galls. 100% means that no galls were found; 0% means that the number of galls on the treated plants corresponds to the untreated control.

Series [6] deals with larvae of the mustard beetle (Phaedon cochleariae). In words: Phaedon cochleariae spray test (PHAECO). Type of series: in vivo. The conditions noted are these: 100 g/ha, after 7 days. In short, it runs like this: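 Compound dissolved in acetone/dimethylformamide and diluted with water containing 1000 ppm alkylaryl polyglycol ether emulsifier to test concentrations. Efficacy in % scored after 7 days: 100% means all beetle larvae killed, 0% none killed.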

In series [7] the test system is caterpillars of the armyworm (Spodoptera frugiperda). The series is described as follows: Spodoptera frugiperda spray test (SPODFR). Format: in vivo. The conditions noted are these: for efficacy: 100 g/ha, spray, after 7 days; for % efficacy: SPODFR, 7 dat. In short, it runs like this:
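Maize leaf discs sprayed with compound in acetone/dimethylformamide diluted in water with 1000 ppm alkylaryl polyglycol ether emulsifier, dried, then infested with armyworm caterpillars. Efficacy in % after 7 days (100% = all caterpillars killed, 0% = none).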

Series [8] deals with greenhouse red spider mite (Tetranychus urticae). In words: Tetranychus urticae spray test, OP-resistant (TETRUR). Type of series: in vivo. The conditions noted are these: 100 g/ha, spray, after 6 days. In short, it runs like this:
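Bean (Phaseolus vulgaris) leaf discs infested with all stages of OP-resistant Tetranychus urticae were sprayed with compound in acetone/DMF diluted in water with 1000 ppm emulsifier. Efficacy was scored as % mites killed after 6 days.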

For series [9], the system named is L2 larvae of the banded cucumber beetle (Diabrotica balteata). The series is described as follows: Diabrotica balteata drench test (DIABBA). Format: in vivo. Conditions: 20 ppm, 8 dat. On the procedure: Diabrotica balteata—Drench Test (DIABBA) Solvent: 7 parts by weight of dimethylformamide Emulsifier: 2 parts by weight of alkylaryl polyglycol ether To produce a suitable active compound formulation, 1 part by weight of active compound is mixed with the specified amounts of solvent and emulsifier, and the concentrate is diluted with water to the desired concentration, it being necessary to include the volume of soil which is drenched in the calculation. It should be ensured that a concentration of 40 ppm of emulsifier in the soil is not exceeded. To produce further test concentrations, water is used for dilution. […] After one day, 25 L2 larvae of the banded cucumber beetle (Diabrotica balteata) are added. After 8 days, the efficacy in % is determined 100% means that all 5 plants have germinated and grown; 0% means that none of the plants has emerged.

A short description of series [10]: log P by HPLC (EEC directive 79/831 Annex V.A8). Format: physicochemical. The conditions noted are these: 43° C., acidic range pH 2.7; for log P: HPLC, reversed-phase column (C18). In short, it runs like this:
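Measured by reversed-phase HPLC on a C18 column at 43 °C per EEC directive 79/831 Annex V.A8. Calibration used unbranched alkan-2-ones (C3–C16) of known log P.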

Series [11] has as its system green peach aphid (Myzus persicae). The series is described as follows: Myzus persicae spray test. Conditions: 100 g/ha, after 6 days. Type of series: in vivo. On the procedure: Myzus persicae—Spray Test Solvent: 78 parts by weight of acetone • • 1.5 parts by weight of dimethylformamide Emulsifier: alkylaryl polyglycol ether To produce a suitable appropriate active compound formulation, 1 part by weight of active compound is dissolved using the specified parts by weight of solvent and made up with water containing an emulsifier concentration of 1000 ppm until the desired concentration is attained. To produce further test concentrations, the preparation is diluted with emulsifier-containing water. Discs of Chinese cabbage leaves (Brassica pekinensis) infested by all stages of the green peach aphid (Myzus persicae) are sprayed with an active compound formulation of the desired concentration. After 6 days, the efficacy in % is determined. 100% means that all the aphids have been killed; 0% means that none of the aphids have been killed.

Series [12] relates to Tick nymphs (Amblyomma hebraeum). The series is described as follows: Amblyomma hebraeum test (tick nymph immersion). Type of series: in vivo. Conditions: 100 ppm, after 42 days. On the procedure:
Amblyomma Hebaraeum Test Solvent: dimethyl sulphoxide To produce a suitable active compound formulation, 10 mg of active compound are mixed with 0.5 ml of dimethyl sulphoxide, and the concentrate is diluted with water to the desired concentration. Tick nymphs (Amblyomma hebraeum) are placed into perforated plastic beakers and immersed in the desired concentration for one minute. The ticks are transferred on filter paper into a Petri dish and stored in a climate-controlled cabinet. After 42 days, the kill in % is determined. 100% means that all of the ticks have been killed; 0% means that none of the ticks have been killed.

Series [13] concerns cattle ticks (Boophilus microplus) Parkhurst strain, SP-resistant. The series is described as follows: Boophilus microplus dip test. Format: in vivo. The conditions noted are these: 20 ppm, assessed after 7 days. On the procedure:
Boophilus microplus—Dip Test
Test animals: cattle ticks (Boophilus microplus) Parkhurst strain, SP-resistant
Solvent: dimethyl sulphoxide
10 mg of active compound are dissolved in 0.5 ml of dimethyl sulphoxide. For the purpose of producing a suitable formulation, the active compound solution is diluted with water to the concentration desired in each case.
This active compound preparation is pipetted into tubes. 8-10 engorged adult female cattle ticks (Boophilus microplus) are transferred into a further tube with holes. The tube is immersed into the active compound formulation, and all the ticks are completely wetted. After the liquid has run out, the ticks are transferred on filter discs into plastic dishes and stored in a climate-controlled room.
The efficacy is assessed after 7 days by laying of fertile eggs. Eggs which are not visibly fertile are stored in a climate-controlled cabinet until the larvae hatch after about 42 days. An efficacy of 100% means that none of the ticks has laid any fertile eggs; 0% means that all the eggs are fertile.

By log P is commonly meant a log measure of how a compound divides between an organic and an aqueous phase. By chromatographic logP is commonly meant a lipophilicity value derived from retention on a column.

For the compound `C#CCn1c(C(=O)NC(c2ccc(Cl)c(C(F)(F)F)c2)C(F)(F)F)cc2cc(C(=O)NC3(C(N)=S)CC3)c(Cl)cc21` (stereo not shown) [I-19], in [1], the “efficacy (laying of fertile eggs)” value is 100%. Further, the “efficacy (kill in %)” value in [2], in [3] and in series [4] was 100% in each case. In addition, in series [5], the “nematicidal efficacy (formation of galls)” value is 90%. The efficacy in [6], in series [7] and in series [8] was 100% throughout. Further, the “% efficacy” value in series [9] turned out to be 100%. Also, in series [10], the “log P” value was 3.73.

With `Cn1c(C(=O)NC(c2cc(Cl)c(Cl)c(Cl)c2)C(F)(F)F)cc2cc(C(=O)NC3(C(N)=S)CC3)c(Cl)cc21` (stereo not shown) [I-20], the “efficacy (laying of fertile eggs)” value in series [1] worked out at 100%. Besides, the “efficacy (kill in %)” value in series [2], in [3] and in series [4] was 100% in each case. The efficacy in [11] came out at 90%; in series [6] it was 100%; in series [7], 100%; in series [8], 100%. The “% efficacy” value in series [7] (0.8 g/ha) and in [7] (4 g/ha) was 100% throughout. The lipophilicity (log P) in series [10] stood at 4.07.

`CCn1c(C(=O)NC(c2cc(Cl)c(Cl)c(F)c2F)C(F)(F)F)cc2cc(C(=O)NC3(C(N)=S)CC3)c(Cl)cc21` (stereo not shown) [I-29]: the “efficacy (laying of fertile eggs)” value in [1] was found to be 100%. Further, the “efficacy (kill in %)” value in [2], in series [3] and in series [4] was 100% in each case. Besides, the efficacy in series [11] came out at 100%; in series [6], 100%; in [7], 100%; in [8], 90%. Further, the log partition coefficient (log P) in series [10] is listed as 4.27.

Regarding `CCn1c(C(=O)NC(c2ccc(F)c(C(F)(F)F)c2)C(F)(F)F)nc2cc(C(=O)NC3(C(N)=S)CC3)c(Cl)cc21` (stereo not shown) [I-30, N5-(1-Carbamothioylcyclopropyl)-6-chloro-1-ethyl-N2-{2,2,2-trifluoro-1-[4-fluoro-3-(trifluoromethyl)phenyl]ethyl}-1H-benzimidazole-2,5-dicarboxamide], the “efficacy (kill in %)” value in series [12], in series [2], in series [3] and in series [4] was 100% throughout. In addition, the “efficacy (laying of fertile eggs)” value in series [1] and in series [13] was 100% in each case. The efficacy in [6], in series [7] and in [8] was 100% each time. Also, in series [10], the “log P” value is recorded as 3.46. The same compound came in with a chromatographic logP in series [10] (reversed-phase C18 HPLC column, pH 2.7, HPLC) of 3.56.

Regarding `CCn1c(C(=O)NC(c2ccc(F)c(C(F)(F)F)c2)C(F)F)cc2cc(C(=O)NC3(C(N)=S)CC3)c(Cl)cc21` (stereo not shown) [I-32], the “efficacy (laying of fertile eggs)” value in series [1] was found to be 100%. Moreover, the “efficacy (kill in %)” value in series [2] and in [3] was 100% throughout. In addition, the efficacy in series [11] was 90%; in [6], 100%; in [7] it was 100%; in [8] it was 100%. In addition, the log partition coefficient (log P) in series [10] is 3.41.
